Results taken from ChEMBL document CHEMBL1139216, “Discovery and refinement of a new structural class of potent peptide deformylase inhibitors” (J Med Chem, 2007).
In brackets after ≈: the same amount, converted by molar mass.

What was measured:
[1] = target: T1, Peptide deformylase 1A, chloroplastic/mitochondrial (Arabidopsis thaliana, UniProt Q9FV53)
T1 sequence (Q9FV53 whole entry): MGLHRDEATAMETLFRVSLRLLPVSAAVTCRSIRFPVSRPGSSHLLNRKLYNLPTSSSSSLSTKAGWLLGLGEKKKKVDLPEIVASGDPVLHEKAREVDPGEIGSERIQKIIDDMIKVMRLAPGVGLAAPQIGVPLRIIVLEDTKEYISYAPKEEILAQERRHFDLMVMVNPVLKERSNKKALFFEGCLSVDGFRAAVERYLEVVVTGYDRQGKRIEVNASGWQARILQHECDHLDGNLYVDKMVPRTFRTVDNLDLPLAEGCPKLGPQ

Peptide deformylase = target: T2, Peptide deformylase (Escherichia coli, UniProt Q9JN24)
T2 sequence (Q9JN24 whole entry): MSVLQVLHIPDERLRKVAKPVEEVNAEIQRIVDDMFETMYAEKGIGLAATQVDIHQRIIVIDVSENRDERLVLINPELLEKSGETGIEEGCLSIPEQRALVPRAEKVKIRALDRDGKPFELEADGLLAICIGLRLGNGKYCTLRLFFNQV

Escherichia coli [2] = experiment: Antibacterial activity against Escherichia coli JM101Tr; assay type: functional
Escherichia coli [3] = experiment: Antibacterial activity against Escherichia coli CAG1284; assay type: functional
Bacillus subtilis [4] = experiment: Antibacterial activity against Bacillus subtilis D101; assay type: functional
Bacillus subtilis [5] = experiment: Antibacterial activity against Bacillus subtilis MO3482; assay type: functional
Bacillus subtilis [6] = experiment: Antibacterial activity against Bacillus subtilis Y101; assay type: functional
Bacillus subtilis [7] = experiment: Antibacterial activity against Bacillus subtilis 168; assay type: functional
Bacillus subtilis [8] = experiment: Antibacterial activity against Bacillus subtilis; assay type: functional
[9] = target: T3, Peptide deformylase, mitochondrial (Homo sapiens, UniProt Q9HBH1)
T3 sequence (Q9HBH1 whole entry): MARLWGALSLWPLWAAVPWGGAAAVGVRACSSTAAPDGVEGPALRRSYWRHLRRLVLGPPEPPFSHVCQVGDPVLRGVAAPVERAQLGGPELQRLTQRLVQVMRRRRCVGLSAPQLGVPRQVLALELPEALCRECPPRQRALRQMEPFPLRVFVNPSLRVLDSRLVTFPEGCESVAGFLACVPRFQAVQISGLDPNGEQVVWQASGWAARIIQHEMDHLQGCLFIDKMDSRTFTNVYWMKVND

Escherichia coli [10] = experiment: Antibacterial activity against Escherichia coli K37; assay type: functional

In the case of `CC(C)(C)OC(=O)NC(CNO)Cc1ccccc1` (stereo not given), the IC50 [1] is reported as > 1000 µM and the IC50 (Peptide deformylase) is reported as 52 µM.
For `O=C(CO)Cc1c[nH]c2ccc(Br)cc12`, the MIC (Escherichia coli [2]) was > 300 µg/mL, the MIC (Escherichia coli [3]) was > 300 µg/mL and the IC50 [1] was 790 µM. The MIC (Bacillus subtilis [4]) was > 300 µg/mL, the MIC (Bacillus subtilis [5]) was > 300 µg/mL and the MIC (Bacillus subtilis [6]) was > 300 µg/mL. For the same compound, the MIC (Bacillus subtilis [7]) was > 300 µg/mL and the IC50 (Peptide deformylase) was 560 µM.
For `CC(=O)SCC(=O)Cc1c[nH]c2ccccc12`, the IC50 [1] was > 1000 µM and the IC50 (Peptide deformylase) was 200 µM.
For `Cc1[nH]c2ccc(Br)cc2c1CC(=O)NO`, the MIC (Escherichia coli [2]) was > 300 µg/mL, the MIC (Bacillus subtilis [8]) was 220 µg/mL (≈ 777 µM) and the IC50 [1] was 450 µM. The IC50 [9] was 450 µM.
With `COc1ccc2[nH]cc(CC(=O)NO)c2c1` the MIC (Escherichia coli [2]) was > 300 µg/mL, the MIC (Bacillus subtilis [8]) was 155 µg/mL (≈ 704 µM) and the IC50 [1] was > 1000 µM.
`Cc1c(CN(O)C=O)c2cc(Br)ccc2n1S(=O)(=O)c1ccccc1` showed an MIC (Escherichia coli [2]) of 65 µg/mL (≈ 154 µM), an MIC (Bacillus subtilis [8]) of 35 µg/mL (≈ 82.7 µM) and an IC50 [1] of 35 µM. It also gave an IC50 [9] of 200 µM and an IC50 (Peptide deformylase) of 0.03 µM.
For `O=C(O)Cc1cn(C(=O)OCc2ccccc2)c2ccccc12`, the IC50 [1] was > 1000 µM and the IC50 (Peptide deformylase) was 300 µM.
With `CC(C)(C)OC(=O)NC(Cc1ccccc1)CN(O)C=O` (stereo not given) the MIC (Escherichia coli [2]) was > 300 µg/mL, the MIC (Escherichia coli [3]) was 120 µg/mL (≈ 408 µM) and the MIC (Bacillus subtilis [4]) was > 300 µg/mL. For the same compound, the MIC (Bacillus subtilis [5]) was > 300 µg/mL, the MIC (Bacillus subtilis [6]) was 9 µg/mL (≈ 30.6 µM) and the MIC (Bacillus subtilis [7]) was > 300 µg/mL. For the same compound, the IC50 (Peptide deformylase) was 0.05 µM.
`CC(=O)SCC(=O)Cc1cn(C(=O)OCc2ccccc2)c2ccccc12` was tested, and the IC50 [1] was 500 µM and the IC50 (Peptide deformylase) was 350 µM.
`O=C(CS)Cc1c[nH]c2ccc(Br)cc12` gave an IC50 [1] of 200 µM and an IC50 (Peptide deformylase) of 80 µM.
`Cc1c(CNO)c2cc(Br)ccc2n1S(=O)(=O)c1ccccc1` gave an IC50 [1] of 500 µM and an IC50 (Peptide deformylase) of 6 µM.
Work on `CC(=O)SCC(=O)Cc1c[nH]c2ccc(Br)cc12` yielded an IC50 [1] of 170 µM and an IC50 (Peptide deformylase) of 120 µM.
In the case of `Cc1[nH]c2ccc(Br)cc2c1CNO`, the IC50 [1] is reported as > 250 µM and the IC50 (Peptide deformylase) is reported as 50 µM.
`CCCCC[C@H](CC(=O)NO)C(=O)N[C@H](C(=O)N1CCC[C@H]1CO)C(C)C` [ACTINONIN] showed an MIC (Escherichia coli [2]) of 34 µg/mL (≈ 88.2 µM), an MIC (Escherichia coli [10]) of 32 µg/mL (≈ 83 µM) and an MIC (Escherichia coli [3]) of 0.125 µg/mL (≈ 0.324 µM). The MIC (Bacillus subtilis [8]) was 1.3 µg/mL (≈ 3.37 µM), the IC50 [1] was 0.027 µM and the MIC (Bacillus subtilis [4]) was 1 µg/mL (≈ 2.59 µM). It also gave an MIC (Bacillus subtilis [5]) of 1 µg/mL (≈ 2.59 µM), an MIC (Bacillus subtilis [6]) of 0.125 µg/mL (≈ 0.324 µM) and an MIC (Bacillus subtilis [7]) of 1 µg/mL (≈ 2.59 µM). For the same compound, the IC50 (Peptide deformylase) was 0.01 µM.
In the case of `O=C(O)Cc1c[nH]c2ccccc12` [INDOLE-3-ACETIC ACID], the IC50 [1] is reported as > 1000 µM and the IC50 (Peptide deformylase) is reported as > 1000 µM.
